According to patent US20260097051A1, “CANNA[…] A T[…] FOR COVID-19” (AUGUSTA UNIVERSITY RESEARCH INSTITUTE, INC., priority 2021, published 2026):
“Also recorded” adds a separate entry of the source.

Legend:
[1] = tested on: monoacylglycerol lipase (MAGL); conditions: De Petrocellis et al., 2011; cited from earlier work
[2] = target: transient receptor potential (TRP) ankyrin 1-type (TRPA1) channels (Rattus norvegicus, UniProt Q6RI86); conditions: De Petrocellis et al., 2008; 2011; cited from earlier work
[3] = tested on: endocannabinoid cellular reuptake; conditions: Ligresti et al., 2006; cited from earlier work
[4] = tested on: Poly(I:C)-induced ARDS in C57BL/6 mice; test: Poly(I:C)-induced ARDS mouse model, CBC treatment
Procedure: Animal model and application of Poly(I:C) and CBC: Wild-type (WT) C57BL/6 mice (male, 12 weeks old) were divided into 3 experimental groups of sham, control and treatment (n=5). […] All mice were anesthetized with isoflurane. Sham group received PBS while control and treatment groups were administered by Poly(I:C) (Sigma Aldrich, USA) (100 μg in 50 μl sterile PBS) intranasally (I/N) three once-daily doses. CBC (isolate THC free) was delivered intraperitoneally (5mg/kg), first dose two hours after the second Poly(I:C) treatment and every other day interval, total of 3 doses. Sham and control groups received PBS only. All mice were sacrificed at 8 days after the first Poly(I:C) application. Blood and lung tissues were harvested and subjected to the further analysis.
Measurement of vital signs: Vital signs including temperature, Blood O2 saturation were measured prior and post of any treatment. Central body temperature was measured rectally and blood oxygen saturation was determined using portable pulse oximetry through carotid arteries.
Histology and immunohistochemistry: Left lobes of lung tissue were fixed in 10% neutral buffered formalin. Samples were processed by routine methods, oriented so as to provide coronal sections and 5 micron mid-coronal sections cut and stained with hematoxylin & eosin, Trichrome for histology. As for inflammatory indices, immunohistochemistry was performed by incubating the samples with specific antibodies against murine IL-6 (Cat #554402, BD BioSciences Pharmingen) and Neutrophils (Cat #G102, Leinco Technologies). Preparations were counterstained with hematoxylin (catalog no. 7221; Richard-Allan Scientific, Kalamazoo, MI, USA) and mounted in Faramount (catalog no. S3025, DAKO), analyzed and imaged by brightfield microscopy.
Analytical Flow Cytometry: Single cell suspension was prepared from lung tissues. Briefly, tissue samples were sieved through a 100 μM cell strainer (BD Biosciences, San Diego, CA), followed by centrifugation (1,000 rpm, 10 min) to prepare single-cell suspensions. All cells were then stained with fluorescent antibodies to quantify neutrophils, macrophages, lymphocytes and cytokine expression. Briefly, all cells were stained with anti-Gr1 (Neutrophils), Anti-F4/80 (Macrophages), and anti-CD3/CD4/CD8 (Lymphocytes, all from Biolegend USA). Then cells were fixed and permeabilized and stained intracellularly for cytokines including IL-6, TNFα, IL-2, and IFNγ (Proinflammatory cytokines). All samples were run through a 4-Laser LSR II flow cytometer. Cells were gated based on forward and side scatter properties and on marker combinations to select cells of interest. All acquired flow cytometry data were analyzed using the FlowJo V10.
Statistical analysis: Graphs and summary statistics were also used to assess the results. All statistical tests were 2-sided. Except for where noted, all p-values presented are unadjusted for multiple comparisons.

[5] = tested on: Poly(I:C)-induced ARDS in C57BL/6 mice; test: Poly(I:C)-induced ARDS mouse model, CBD treatment
Procedure: Animal model and application of Poly(I:C) and CBC: Adult (12 weeks) male C57B1/6 mice were block randomized into one of three experimental groups (n=10 mice/group) by a blinded investigator. Group I received intranasal, once daily administration of sterile saline for three consecutive days to serve as a control. Group II received intranasal, once daily administration of Poly I:C (100 μg in 50 μL in sterile saline) for three consecutive days to mimic ARDS. Group III received intranasal, once daily administration of Poly I:C (100 μg in 50 μL in sterile saline) for three consecutive days, with intraperitoneal administration of CBD (isolate CBD, THC-free, 5 mg/kg body weight, Canabidiol Ltd, Dublin, Ireland), first dose two hours after the second Poly(I:C) treatment and every other day for a total of 3 doses to the treatment group. Blood oxygen saturation was quantified via the carotid arteries using a portable pulse oximeter at study initiation (day 0) and once daily for the duration of the study. Mice were euthanized at study day nine. Blood and lung tissue were harvested and subjected to flow cytometry, immunofluorescence and histological analysis, as detailed above. All flow cytometry data were analysed using the FlowJo V10 software while immunofluorescence, and histological preparations were analysed and imaged by fluorescence and bright field microscopy. As for additional histological evaluation, Masson's Trichrome staining was used for the detection of collagen fibres in lung on formalin-fixed, paraffin-embedded sections. The collagen fibres stained in blue and the background is stained red. Sections were examined and analysed using bright field microscopy imaging.

[6] = blood, vs untreated counterparts, p<0.01
[7] = lung tissue, PIC+CBC vs sham or PIC
[8] = lung, vs untreated counterparts, p<0.01
[9] = lung tissue, CBD after Poly(I:C)
[10] = whole blood, CBD 5 mg/kg intraperitoneal, 3 doses, after Poly(I:C)

Chain of transient receptor potential (TRP) ankyrin 1-type (TRPA1) channels (Q6RI86 whole entry): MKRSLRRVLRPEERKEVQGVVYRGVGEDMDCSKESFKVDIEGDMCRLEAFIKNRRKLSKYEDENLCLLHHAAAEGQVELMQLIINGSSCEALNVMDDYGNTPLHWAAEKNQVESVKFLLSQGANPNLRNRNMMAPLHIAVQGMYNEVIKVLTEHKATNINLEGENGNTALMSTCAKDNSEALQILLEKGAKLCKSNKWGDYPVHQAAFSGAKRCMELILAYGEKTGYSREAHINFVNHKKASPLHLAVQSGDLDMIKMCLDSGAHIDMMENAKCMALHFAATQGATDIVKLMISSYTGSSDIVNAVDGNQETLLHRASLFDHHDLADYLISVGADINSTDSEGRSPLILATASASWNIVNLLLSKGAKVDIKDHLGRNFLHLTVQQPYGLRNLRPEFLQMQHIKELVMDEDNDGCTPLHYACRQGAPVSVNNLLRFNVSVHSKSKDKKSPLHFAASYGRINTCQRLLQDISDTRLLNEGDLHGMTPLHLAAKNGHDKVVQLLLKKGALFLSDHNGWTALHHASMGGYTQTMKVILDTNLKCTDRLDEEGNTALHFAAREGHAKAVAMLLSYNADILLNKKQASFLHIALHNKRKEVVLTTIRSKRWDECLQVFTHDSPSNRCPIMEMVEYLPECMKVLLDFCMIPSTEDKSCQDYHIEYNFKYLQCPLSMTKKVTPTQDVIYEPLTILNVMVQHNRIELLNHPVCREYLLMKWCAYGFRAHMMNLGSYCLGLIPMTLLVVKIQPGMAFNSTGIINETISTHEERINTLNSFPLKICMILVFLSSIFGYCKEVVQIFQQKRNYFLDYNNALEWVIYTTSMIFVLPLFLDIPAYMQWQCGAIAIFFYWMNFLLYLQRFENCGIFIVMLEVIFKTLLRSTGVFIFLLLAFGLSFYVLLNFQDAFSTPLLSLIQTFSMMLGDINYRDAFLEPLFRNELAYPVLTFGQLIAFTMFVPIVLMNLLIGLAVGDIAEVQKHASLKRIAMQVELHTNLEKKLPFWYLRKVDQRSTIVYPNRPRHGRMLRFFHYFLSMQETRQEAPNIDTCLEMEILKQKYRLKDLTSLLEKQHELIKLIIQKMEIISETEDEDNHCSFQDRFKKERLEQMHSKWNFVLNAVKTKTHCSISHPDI

Structure (SMILES)	inhibition of monoacylglycerol lipase (MAGL) [1]	activation of TRPA1 channels [2]	inhibition of endocannabinoid cellular reuptake [3]	increase in blood oxygen saturation ([4]; Poly(I:C) mice, CBC treated vs untreated PIC) [%]	blood oxygen saturation after CBC treatment ([4]; Poly(I:C) mice, pulse oximetry, untreated PIC group 90%) [%]	IFNγ expression level in blood (flow cytometry) [4, 6]	IL-6 expression level in blood (flow cytometry) [4, 6]	IL-17 expression level in blood (flow cytometry) [4, 6]	lung histology (H&E, Masson's trichrome): structural damage, hypertrophy and fibrosis ([4]; lung tissue, PIC+CBC vs PIC)	TRPA1 expression in lung tissue (immunohistochemistry) [4, 7]	TRPV1 expression in lung tissue (immunohistochemistry) [4, 7]	IFNγ expression level in lung (flow cytometry) [4, 8]	IL-6 expression level in lung (flow cytometry) [4, 8]	IL-17 expression level in lung (flow cytometry) [4, 8]	apelin expression in lung tissue (immunofluorescence) [5, 9]	lung histology (Masson's trichrome): inflammatory infiltrate, fibrosis, hypertrophy, pulmonary oedema [5, 9]	apelin expression in blood (flow cytometry) [5, 10]	blood T cells (flow cytometry) [5, 10]	blood neutrophils (flow cytometry) [5, 10]
CCCCCc1cc(O)c2c(c1)OC(C)(CCC=C(C)C)C=C2 (stereo not shown) [CBC, cannabichromene]	weak inhibitor	potent activator	inhibitor of endocannabinoid cellular reuptake	8	98	curtailed the expression levels	curtailed the expression levels	curtailed the expression levels	reduced hypertrophy and fibrosis	increased the level of expression	increased the level of expression	curtailed the expression levels	curtailed the expression levels	curtailed the expression levels					
C=C(C)[C@@H]1CCC(C)=C[C@H]1c1c(O)cc(CCCCC)cc1O [CBD, cannabidiol]															increased apelin expression towards control levels; also recorded: normalized the Apelin expression	completely or partially abolished; also recorded: improved the structure towards the normal architecture	enhanced expression of apelin; also recorded: normalized the expression level of apelin; also recorded: attenuated these effects	returned decreased T cells and increased neutrophils towards the normal level	returned decreased T cells and increased neutrophils towards the normal level
